# Reference: patent US20210330611A1, “THERAPY FOR NEUROLOGICAL DISEASES/DISORDERS” (priority 2020, published 2021)
# Structures can show the parent of a compound that is named as a salt. Where two headings read alike, the source gives them in different places.
# Tests used:
# [1] = system: fibrin- and LPS-induced microglia activation; experiment: cells; assay type: cell-based, rat
# [2] = system: LPS-induced microglia activation; experiment: Image-based assay of LPS-induced microglia activation (HTS and dose response); assay type: cell-based, rat; details: for inhibition at 10 µM: Rattus norvegicus, Microglia, read-out: LPS % inhibition
# [3] = system: fibrin-induced microglia activation; experiment: Image-based assay of fibrin-induced microglia activation (HTS and dose response); assay type: cell-based, rat; details: primary microglia HTS, fibrin stimulation; for inhibition at 10 µM: Rattus norvegicus, Microglia, read-out: Fibrin % inhibition
# [4] = system: primary rat microglia
# [5] = system: primary rat microglia; experiment: Cell toxicity (dead cells, size <150 μm2) in coated fibrin (cFib) assay; details: primary microglia HTS;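 also: share of dead cells sized under 150 µm2 at 10 µM in fibrin-stimulated microglia HTS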
# [6] = classification by fibrin and LPS inhibition in HTS
# [7] = cell size >800 μm2 as marker of activation
# [8] = fibrin stimulation, cell size <150 μm2 as marker of toxicity
Compound,"Quadrant (FIG. 5b) [1, 6]",inhibition at 10 µM ([2]; 48 h),"inhibition at 10 µM [3, 7]",LPS % cell toxicity ([4]; rat),"Fibrin % cell toxicity [5, 8]",LPS % inhibition [2],"Fibrin % inhibition [3, 7]",LPS % cell toxicity [4],"Quadrant (FIG. 5b) ([1]; quadrant by fibrin and LPS inhibition, HTS at 10 μM)","inhibition at 10 µM ([2]; primary microglia HTS, LPS stimulation, compounds at 10 μM)",inhibition at 10 µM ([3]; compounds at 10 μM),"Fibrin % cell toxicity ([5]; fibrin assay, dead cells (size <150 μm2))"
O=C(Nc1ccccc1)c1ccccc1O [Salicylanilide],Q4,13%,1%,0%,1%,–,–,–,–,–,–,–
O=C(Oc1ccccc1C(=O)O)c1ccccc1O [Salsalate],Q4,14%,-22%,1%,1%,–,–,–,–,–,–,–
O=C(O)c1cn(-c2ccc(F)cc2)c2cc(N3CCNCC3)c(F)cc2c1=O [Sarafloxacin],Q4,4%,2%,0%,0%,–,–,–,–,–,–,–
N#C[C@@H]1C[C@@H]2C[C@@H]2N1C(=O)[C@@H](N)C12CC3CC(CC(O)(C3)C1)C2 [Saxagliptin],Q4,38%,34%,0%,1%,–,–,–,–,–,–,–
Cc1ncc([N+](=O)[O-])n1CC(C)O (stereo not shown) [Secnidazole],Q4,22%,-24%,2%,1%,–,–,–,–,–,–,–
C[Se]CC[C@H](N)C(=O)O [Selenomethionine],Q4,10%,-5%,0%,1%,–,–,–,–,–,–,–
O=C(O)c1cc(O)c2c(c1)[C@H]([C@H]1c3cc(C(=O)O)cc(O)c3C(=O)c3c(O[C@@H]4O[C@H](CO)[C@@H](O)[C@H](O)[C@H]4O)cccc31)c1cccc(O[C@@H]3O[C@H](CO)[C@@H](O)[C@H](O)[C@H]3O)c1C2=O [Sennoside A],Q4,–,–,–,1%,14%,−10%,0%,–,–,–,–
CC1=C(C)C(=O)C(C(CCCCCC(=O)O)c2ccccc2)=C(C)C1=O (stereo not shown) [Seratrodast],Q4,14%,20%,0%,1%,–,–,–,–,–,–,–
Clc1ccc(C(Cn2ccnc2)OCc2csc3c(Cl)cccc23)c(Cl)c1 (stereo not shown) [Sertaconazole],Q4,11%,-25%,0%,1%,–,–,–,–,–,–,–
FCOC(C(F)(F)F)C(F)(F)F [Sevoflurane],Q4,17%,-1%,1%,1%,–,–,–,–,–,–,–
CN[C@@H]1[C@@H](O)[C@@H](O[C@@H]2[C@@H](O)[C@H](O[C@H]3OC(CN)=CC[C@H]3N)[C@@H](N)C[C@H]2N)OC[C@]1(C)O [Sisomicin Sulfate],Q4,10%,-41%,0%,0%,–,–,–,–,–,–,–
N[C@@H](CC(=O)N1CCn2c(nnc2C(F)(F)F)C1)Cc1cc(F)c(F)cc1F [Sitagliptin],Q4,4%,-16%,0%,0%,–,–,–,–,–,–,–
O=C(O)CCCO [Sodium Oxybate],Q4,34%,-5%,0%,1%,–,–,–,–,–,–,–
CCCCCCCCCCCCCCOS(=O)(=O)[O-].[Na+] [Sodium Tetradecyl Sulfate],Q4,13%,-5%,0%,1%,–,–,–,–,–,–,–
CC(=O)N[C@@H](CC(=O)N[C@@H](CCC(=O)O)C(=O)O)C(=O)O [Spaglumic Acid],Q4,15%,-15%,0%,1%,–,–,–,–,–,–,–
CN[C@@H]1[C@H](O)[C@H](NC)[C@H]2O[C@@]3(O)C(=O)C[C@@H](C)O[C@H]3O[C@@H]2[C@H]1O [Spectinomycin],Q4,19%,14%,0%,0%,–,–,–,–,–,–,–
CCCCCCCCNC(C)C(O)c1ccc(SC(C)C)cc1 (stereo not shown) [Suloctidil],–,–,–,0%,–,–,–,–,Q3,3%,112%,90%
